Test results: patent US11337971B2, “Dopamine D3 receptor selective antagonists/partial agonists and uses thereof” (THE UNITED STATES OF AMERICA, AS REPRESENTED BY THE …, priority 2018, dated 2022)
Read-outs that look alike come from different tables or passages of the source.

Tests used:
human D2R = human D2R (Homo sapiens (Human), UniProt P14416); assay: Radioligand competition binding, [3H]N-methylspiperone, HEK293 membranes expressing human D2R; conditions: read-out: D2R Ki ± SEM
Experimental: (§1) Binding at dopamine D2-like receptors was determined using previously described methods. […] Upon reaching 80-90% confluence, cells were harvested using pre-mixed Earle's Balanced Salt Solution (EBSS) with […] EDTA (Life Technologies) and centrifuged at 3000 rpm for 10 min at 21° C. The supernatant was removed and the pellet was resuspended in 10 mL hypotonic lysis buffer (5 mM MgCl2.6H2O, 5 mM Tris, pH 7.4 at 4° C.) and centrifuged at 20,000 rpm for 30 min at 4° C. The pellet was then resuspended in fresh EBSS buffer made from 8.7 g/L Earle's Balanced Salts without phenol red (US Biological, Salem, Mass.), 2.2 g/L sodium bicarbonate, pH to 7.4. A Bradford protein assay (Bio-Rad, Hercules, Calif.) was used to determine the protein concentration and membranes were diluted to 500 μg/mL and stored in a −80° C. freezer for later use.
(§2) Radioligand competition binding experiments were conducted using thawed membranes. Test compounds were freshly dissolved in 30% DMSO and 70% H2O to a stock concentration of 100 μM. To assist the solubilization of free-base compounds, 10 μl of glacial acetic acid was added along with the DMSO. Each test compound was then diluted into 13 half-log serial dilutions using 30% DMSO vehicle; final test concentrations ranged from 10 μM to 10 pM. Previously frozen membranes were diluted in fresh EBSS to a 100 μg/mL (for hD2R or hD3R) or 200 μg/mL (hD4R) stock for binding. […] buffer with 0.2 mM sodium metabisulfite, 50 μl of diluted test compound, 100 μl of membranes (10 μg total protein for hD2R or hD3R, 20 μg total protein for hD4R), and 50 μl of [^3H]N-methylspiperone (0.4 nM final concentration; Perkin Elmer). Nonspecific binding was determined using 10 μM butaclamol (Sigma-Aldrich, St. Louis, Mo.) and total binding was determined with 30% DMSO vehicle. All compound dilutions were tested in triplicate and the reaction incubated for one hour at room temperature. The reaction was terminated by filtration through Whatman GF/B filters, presoaked for one hour in 0.5% polyethylenimine, using a Brandel R48 filtering manifold (Brandel Instruments, Gaithersburg, Md.). The filters were washed 3 times with 3 mL of ice cold EBSS buffer and transferred to scintillation vials. […] IC50 values for each compound were determined from dose-response curves and Ki values were calculated using the Cheng-Prusoff equation; these analyses were performed using GraphPad Prism version 5.00 for Windows (GraphPad Software, San Diego, Calif.). Reported Ki values were determined from least three independent experiments.
(§3) The binding affinities of the compounds were evaluated by performing competition binding studies with [^3H]N-methylspiperone using membranes prepared from HEK293 cells expressing either the human D2R or D3R.

[1] = Phase I metabolic stability in rat liver microsomes; assay type: in vitro ADME; conditions: phase I metabolic stability in rat liver microsomes
From the text: Rat Liver Microsome Metabolic Stability: Test compounds including 3-F analogues (C4a, C4b, C5a, C5b) and 29, 19 as well as the R-, S-enantiomers of C4a, C5a, 29 and 19 were screened for phase I metabolic stability in rat liver microsomes.

human D3R = human D3R (Homo sapiens (Human), UniProt P35462); assay: Radioligand competition binding, [3H]N-methylspiperone, HEK293 membranes expressing human D3R; conditions: for Ki: read-out: D3R Ki ± SEM; for D2/D3: ratio of Ki values
Experimental: as §1, §2, §3

5-HT2A = 5-HT2A (Homo sapiens (Human), UniProt P28223); assay: 5-HT2A [125I]DOI binding; conditions: read-out: 5-HT2A [125I]DOI Ki ± SEM
human dopamine D3R = human dopamine D3R (Homo sapiens (Human), UniProt P35462); assay: D3R mitogenesis assay: stimulation or inhibition of quinpirole-stimulated mitogenesis in CHO cells; assay type: cell-based; conditions: inhibition of quinpirole-stimulated mitogenesis
5-HT1A = 5-HT1A (Homo sapiens (Human), UniProt P08908); assay: 5-HT1A [3H]-8-OH-DPAT binding; conditions: read-out: 5-HT1A [3H]-8-OH-DPAT Ki ± SEM
5-HT2C = 5-HT2C (Homo sapiens (Human), UniProt P28335); assay: 5-HT2C [125I]DOI binding; conditions: read-out: 5-HT2C [125I]DOI Ki ± SEM
human D4R = human D4R (Homo sapiens (Human), UniProt P21917); assay: Radioligand competition binding, [3H]N-methylspiperone, HEK293 membranes expressing human D4R; conditions: Table 1A; for Ki: [3H]N-methylspiperone, read-out: D4R Ki ± SEM; for D4/D2 / D4/D3: ratio of Ki values
Experimental: Binding at dopamine D2-like receptors was determined using previously described methods. (Chen et al. “Tranylcypromine substituted cis-hydroxycyclobutylnaphthamides as potent and selective dopamine D(3) receptor antagonists.” J. Med. Chem. 2014, 57, 4962-4968) Membranes were prepared from HEK293 cells expressing human D2R, D3R or D4R, grown in a 50:50 mix of DMEM and Ham's F12 culture media, supplemented with 20 mM HEPES, 2 mM L-glutamine, 0.1 mM non-essential amino acids, 1× antibiotic/antimycotic, 10% heat-inactivated fetal bovine serum, and 200 μg/mL hygromycin (Life Technologies, Grand Island, N.Y.) and kept in an incubator at 37° C. and 5% CO2. Upon reaching 80-90% confluence, cells were harvested using pre-mixed Earle's Balanced Salt Solution (EBSS) with […] EDTA (Life Technologies) and centrifuged at 3000 rpm for 10 min at 21° C. The supernatant was removed and the pellet was resuspended in 10 mL hypotonic lysis buffer (5 mM MgCl2.6H2O, 5 mM Tris, pH 7.4 at 4° C.) and centrifuged at 20,000 rpm for 30 min at 4° C. The pellet was then resuspended in fresh EBSS buffer made from 8.7 g/L Earle's Balanced Salts without phenol red (US Biological, Salem, Mass.), 2.2 g/L sodium bicarbonate, pH to 7.4. A Bradford protein assay (Bio-Rad, Hercules, Calif.) was used to determine the protein concentration and membranes were diluted to 500 μg/mL and stored in a −80° C. freezer for later use.
Radioligand competition binding experiments were conducted using thawed membranes. Test compounds were freshly dissolved in 30% DMSO and 70% H2O to a stock concentration of 100 μM. To assist the solubilization of free-base compounds, 10 μl of glacial acetic acid was added along with the DMSO. Each test compound was then diluted into 13 half-log serial dilutions using 30% DMSO vehicle; final test concentrations ranged from 10 μM to 10 pM. Previously frozen membranes were diluted in fresh EBSS to a 100 μg/mL (for hD2R or hD3R) or 200 μg/mL (hD4R) stock for binding. Radioligand competition experiments were conducted in glass tubes containing 300 μl fresh EBSS buffer with 0.2 mM sodium metabisulfite, 50 μl of diluted test compound, 100 μl of membranes (10 μg total protein for hD2R or hD3R, 20 μg total protein for hD4R), and 50 μl of [^3H]N-methylspiperone (0.4 nM final concentration; Perkin Elmer). Nonspecific binding was determined using 10 μM butaclamol (Sigma-Aldrich, St. Louis, Mo.) and total binding was determined with 30% DMSO vehicle. All compound dilutions were tested in triplicate and the reaction incubated for one hour at room temperature. The reaction was terminated by filtration through Whatman GF/B filters, presoaked for one hour in 0.5% polyethylenimine, using a Brandel R48 filtering manifold (Brandel Instruments, Gaithersburg, Md.). The filters were washed 3 times with 3 mL of ice cold EBSS buffer and transferred to scintillation vials. 3 mL CytoScint liquid scintillation cocktail (MP Biomedicals, Solon, Ohio) was added and vials were counted using a Perkin Elmer Tri-Carb 2910 TR liquid scintillation counter (Waltham, Mass.). IC50 values for each compound were determined from dose-response curves and Ki values were calculated using the Cheng-Prusoff equation; these analyses were performed using GraphPad Prism version 5.00 for Windows (GraphPad Software, San Diego, Calif.). Reported Ki values were determined from least three independent experiments.

[2] = Table 1B, [3H]-N-methylspiperone competition, D2LR, 96-well plates
[3] = Table 1B, [3H]-N-methylspiperone competition, 96-well plates
[4] = Table 2b, read-out: Antagonist IC50 ± S.E.M.
[5] = Table 1A, HEK 293 cells transfected with hD2LR, [3H]N-methylspiperone
[6] = Table 1A, HEK 293 cells transfected with hD3R, [3H]N-methylspiperone
[7] = Table 2a, read-out: Antagonist IC50 ± SEM

5-HT1A, sequence (P08908 whole entry, species assumed): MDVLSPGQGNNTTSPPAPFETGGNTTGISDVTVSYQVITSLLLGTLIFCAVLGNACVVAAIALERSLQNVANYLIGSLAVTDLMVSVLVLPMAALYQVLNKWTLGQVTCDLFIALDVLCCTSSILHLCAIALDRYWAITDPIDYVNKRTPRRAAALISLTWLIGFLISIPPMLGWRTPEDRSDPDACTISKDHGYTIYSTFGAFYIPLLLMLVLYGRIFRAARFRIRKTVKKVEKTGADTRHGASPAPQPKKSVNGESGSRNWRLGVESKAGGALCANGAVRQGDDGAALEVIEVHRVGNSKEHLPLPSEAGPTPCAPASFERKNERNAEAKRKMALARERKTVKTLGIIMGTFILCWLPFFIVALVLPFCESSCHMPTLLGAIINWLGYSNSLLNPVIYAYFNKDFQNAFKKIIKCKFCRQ
human dopamine D3R, sequence (P35462 whole entry): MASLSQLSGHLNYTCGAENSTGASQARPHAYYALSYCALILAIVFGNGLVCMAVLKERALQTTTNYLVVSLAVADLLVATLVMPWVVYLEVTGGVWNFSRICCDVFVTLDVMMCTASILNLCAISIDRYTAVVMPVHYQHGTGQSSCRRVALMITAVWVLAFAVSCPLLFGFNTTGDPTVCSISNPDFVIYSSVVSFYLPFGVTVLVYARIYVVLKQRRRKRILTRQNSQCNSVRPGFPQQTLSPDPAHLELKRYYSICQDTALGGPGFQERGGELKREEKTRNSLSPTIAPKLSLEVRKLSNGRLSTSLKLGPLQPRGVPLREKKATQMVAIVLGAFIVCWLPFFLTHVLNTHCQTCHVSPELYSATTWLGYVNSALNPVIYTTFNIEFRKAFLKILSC
human D3R, sequence (P35462 whole entry): as above
5-HT2C, sequence (P28335 33-458, species assumed): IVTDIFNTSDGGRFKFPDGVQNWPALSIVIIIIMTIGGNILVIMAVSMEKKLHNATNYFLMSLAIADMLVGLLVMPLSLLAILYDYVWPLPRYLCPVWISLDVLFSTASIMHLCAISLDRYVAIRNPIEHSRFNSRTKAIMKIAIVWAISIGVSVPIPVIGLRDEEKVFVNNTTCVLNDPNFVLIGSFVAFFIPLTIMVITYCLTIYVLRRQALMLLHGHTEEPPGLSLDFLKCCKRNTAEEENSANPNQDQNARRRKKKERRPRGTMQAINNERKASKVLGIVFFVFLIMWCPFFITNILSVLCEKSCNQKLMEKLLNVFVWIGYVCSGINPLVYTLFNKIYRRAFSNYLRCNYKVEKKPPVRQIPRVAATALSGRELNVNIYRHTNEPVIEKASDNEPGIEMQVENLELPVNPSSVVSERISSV
human D4R, sequence (P21917 whole entry): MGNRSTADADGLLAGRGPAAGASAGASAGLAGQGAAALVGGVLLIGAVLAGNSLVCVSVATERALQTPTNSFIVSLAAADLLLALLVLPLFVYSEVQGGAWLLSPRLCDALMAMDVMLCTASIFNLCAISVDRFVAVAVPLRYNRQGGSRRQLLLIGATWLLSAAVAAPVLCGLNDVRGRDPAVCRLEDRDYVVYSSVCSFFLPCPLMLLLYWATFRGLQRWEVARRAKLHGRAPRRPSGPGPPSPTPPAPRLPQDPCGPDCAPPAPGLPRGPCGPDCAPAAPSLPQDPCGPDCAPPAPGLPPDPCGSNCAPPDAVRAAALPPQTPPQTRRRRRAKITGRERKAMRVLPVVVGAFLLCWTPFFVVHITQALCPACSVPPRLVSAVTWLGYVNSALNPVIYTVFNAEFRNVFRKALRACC
5-HT2A, sequence (P28223 whole entry, species assumed): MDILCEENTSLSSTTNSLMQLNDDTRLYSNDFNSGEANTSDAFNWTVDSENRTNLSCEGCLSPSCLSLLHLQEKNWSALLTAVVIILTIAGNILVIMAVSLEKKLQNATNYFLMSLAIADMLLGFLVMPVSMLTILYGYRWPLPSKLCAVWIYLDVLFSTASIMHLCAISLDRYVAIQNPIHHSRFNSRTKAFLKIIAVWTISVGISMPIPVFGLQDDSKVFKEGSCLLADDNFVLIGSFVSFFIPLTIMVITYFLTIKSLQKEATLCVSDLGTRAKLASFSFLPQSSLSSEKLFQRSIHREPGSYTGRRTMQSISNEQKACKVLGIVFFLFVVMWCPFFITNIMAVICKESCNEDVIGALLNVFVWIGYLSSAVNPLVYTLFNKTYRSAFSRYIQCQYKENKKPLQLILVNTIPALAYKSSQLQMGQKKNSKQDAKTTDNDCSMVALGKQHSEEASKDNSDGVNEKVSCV
human D2R, sequence (P14416 whole entry): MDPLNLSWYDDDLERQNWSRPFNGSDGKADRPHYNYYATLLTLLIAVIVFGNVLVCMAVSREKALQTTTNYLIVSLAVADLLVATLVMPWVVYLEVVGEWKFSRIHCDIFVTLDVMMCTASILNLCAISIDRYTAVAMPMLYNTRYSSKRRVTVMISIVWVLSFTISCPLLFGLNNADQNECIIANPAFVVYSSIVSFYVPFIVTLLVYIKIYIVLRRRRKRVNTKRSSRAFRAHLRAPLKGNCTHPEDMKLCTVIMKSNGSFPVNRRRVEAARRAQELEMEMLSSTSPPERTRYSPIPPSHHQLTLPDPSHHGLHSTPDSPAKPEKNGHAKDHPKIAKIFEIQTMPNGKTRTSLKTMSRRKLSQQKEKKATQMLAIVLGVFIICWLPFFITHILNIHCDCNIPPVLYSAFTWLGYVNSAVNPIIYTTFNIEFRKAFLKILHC

SMILES	Ki (human D2R; [2])	Ki (human D2R; Table 1C)	% intact/parent remaining [1]	Ki (human D3R; [3])	D2/D3 (human D3R; Table 1B)	D2/D3 (human D3R; Table 1C)	Ki (human D3R; Table 1C)	Ki (5-HT2A; Table 3b)	IC50 (human dopamine D3R; [4])	Ki (5-HT1A; Table 3b)	Ki (human D2R; [5])	Ki (human D4R)	D4/D2 (human D4R)	D4/D3 (human D4R)	Ki (human D3R; [6])	D2/D3 (human D3R; Table 1A)	Ki (5-HT2A; Table 3a)	IC50 (human dopamine D3R; [7])	Ki (5-HT1A; Table 3a)	Ki (5-HT2C; Table 3a)	other results
CCc1cccc(N2CCN(CC(F)CCNC(=O)c3cc4ccccc4[nH]3)CC2)c1Cl (racemic) [Compound C5a, N-(4-(4-(2-chloro-3-ethylphenyl)piperazin-1-yl)-3-fluorobutyl)-1H-indole-2-carboxamide]	124 ± 15.8 nM	247 ± 57.4 nM	38%	0.482 ± 0.15 nM	257	327	0.756 ± 0.185 nM	620 ± 120 nM	95 ± 31 nM	910 ± 120 nM											D3R selectivity over D2R (D2R/D3R) (human D3R): 327 fold; Ki (5-HT2C; Table 3b): 580 ± 160 nM
CCc1cc(Cl)c(OC)c(N2CCN(CCCCNC(=O)c3cc4ccccc4o3)CC2)c1 [Compound 30, N-(4-(4-(3-Chloro-5-ethyl-2-methoxyphenyl)piperazin-1-yl)butyl)benzofuran-2-carboxamide]											137 ± 9 nM	714 ± 293 nM	5.2	224	3.19 ± 0.268 nM	43	25 ± 6.6 nM	420 ± 130 nM	560 ± 170 nM	55 ± 17 nM	
CCc1cc(Cl)c(OC)c(N2CCN(CC(O)CCNC(=O)c3cc4ccccc4o3)CC2)c1 (stereo not shown) [Compound 31, N-(4-(4-(3-Chloro-5-ethyl-2-methoxyphenyl)piperazin-1-yl)-3-hydroxybutyl)benzofuran-2-carboxamide]											1620 ± 339 nM	5280 ± 319 nM	3.3	146	36.1 ± 5 nM	45	42.9 ± 6.8 nM	950 ± 350 nM	2410 ± 830 nM	268 ± 34 nM	
CCc1cc(Cl)c(OC)c(N2CCN(CCCCNC(=O)c3cc4ccccc4[nH]3)CC2)c1 [Compound 28, N-(4-(4-(3-Chloro-5-ethyl-2-methoxyphenyl)piperazin-1-yl)butyl)-1H-indole-2-carboxamide]											27.8 ± 6.71 nM	1040 ± 279 nM	38	3065	0.341 ± 0.0312 nM	82	60.1 ± 9.5 nM	330 ± 100 nM	2330 ± 700 nM	144 ± 37 nM	
CCc1cccc(N2CCN(CC(O)CCNC(=O)c3cc4ccccc4[nH]3)CC2)c1Cl (racemic) [Compound 19, N-(4-(4-(2-chloro-3-ethylphenyl)piperazin-1-yl)-3-hydroxybutyl)-1H-indole-2-carboxamide]	119 ± 11.1 nM	132 ± 12.7 nM									151 ± 25.4 nM	5520 ± 1660 nM					28.1 ± 9.7 nM		880 ± 160 nM	113 ± 33 nM	
CCc1cc(Cl)c(OC)c(N2CCN(CC(F)CCNC(=O)c3cc4ccccc4o3)CC2)c1 (racemic) [Compound C4b, N-(4-(4-(3-chloro-5-ethyl-2-methoxyphenyl)piperazin-1-yl)-3-fluorobutyl)benzofuran-2-carboxamide]	9740 ± 2100 nM	10800 ± 2290 nM	12%	89.9 ± 12.3 nM	108	108	99.9 ± 13.4 nM	2990 ± 530 nM	490 ± 150 nM	2660 ± 570 nM											Ki (5-HT2C; Table 3b): 1780 ± 390 nM
CCc1cc(Cl)c(OC)c(N2CCN(CC(F)CCNC(=O)c3cc4ccccc4[nH]3)CC2)c1 (racemic) [Compound C4a, N-(4-(4-(3-chloro-5-ethyl-2-methoxyphenyl)piperazin-1-yl)-3-fluorobutyl)-1H-indole-2-carboxamide]	27100 ± 11600 nM	20800 ± 7060 nM	~75%	28 ± 5.53 nM	968	746	27.9 ± 5.64 nM	6600 ± 1400 nM	510 ± 130 nM	9500 ± 3000 nM											
